The text below walks through data of PMC9814779, “A triple farnesoid X receptor and peroxisome proliferator-activated receptor α/δ activator reverses hepatic fibrosis in diet-induced NASH in mice” (Communications Chemistry, 2020).

Data set [1] concerns the target T1, human PPARα ligand-binding domain (Gal4 chimera) (Homo sapiens, UniProt Q07869).
T1 construct: coding for the hinge region and LBD of the canonical isoform of the respective nuclear receptor; expressed in transfected cells; host or cells: HEK293T
T1 sequence (Q07869 239-466 limits assumed): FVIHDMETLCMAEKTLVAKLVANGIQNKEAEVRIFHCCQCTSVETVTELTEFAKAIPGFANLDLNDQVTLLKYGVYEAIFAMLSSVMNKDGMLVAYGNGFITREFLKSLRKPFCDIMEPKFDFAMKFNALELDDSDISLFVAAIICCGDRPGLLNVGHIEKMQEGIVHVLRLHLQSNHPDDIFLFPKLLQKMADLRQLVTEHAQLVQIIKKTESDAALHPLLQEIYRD
Nature of the data set: Gal4 hybrid reporter gene assay, PPARα. Format: cell-based. Further details: Emax: dose or concentration left out as unconfirmed.

Data set [2] concerns the target T2, human PPARδ ligand-binding domain (Gal4 chimera) (Homo sapiens, UniProt Q03181).
T2 construct: coding for the hinge region and LBD of the canonical isoform of the respective nuclear receptor; expressed in transfected cells; host or cells: HEK293T
T2 sequence (Q03181 211-439 limits assumed): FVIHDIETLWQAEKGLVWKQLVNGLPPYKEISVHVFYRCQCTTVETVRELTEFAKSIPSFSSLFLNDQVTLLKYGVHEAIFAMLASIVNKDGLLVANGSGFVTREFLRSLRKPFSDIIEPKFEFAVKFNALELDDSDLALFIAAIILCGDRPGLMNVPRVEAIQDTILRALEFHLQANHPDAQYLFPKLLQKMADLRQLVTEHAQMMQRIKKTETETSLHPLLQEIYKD
In words: Gal4 hybrid reporter gene assay, PPARδ. Format: cell-based. Further details: Emax: dose or concentration left out as unconfirmed. In general terms: Reporter assays use an easily measured gene product as a stand-in for the process of interest.

Data set [3] addresses T3, human PPARγ ligand-binding domain (Gal4 chimera) (Homo sapiens, UniProt P37231).
T3 construct: coding for the hinge region and LBD of the canonical isoform of the respective nuclear receptor; expressed in transfected cells; host or cells: HEK293T
T3 sequence (P37231 238-503 limits assumed): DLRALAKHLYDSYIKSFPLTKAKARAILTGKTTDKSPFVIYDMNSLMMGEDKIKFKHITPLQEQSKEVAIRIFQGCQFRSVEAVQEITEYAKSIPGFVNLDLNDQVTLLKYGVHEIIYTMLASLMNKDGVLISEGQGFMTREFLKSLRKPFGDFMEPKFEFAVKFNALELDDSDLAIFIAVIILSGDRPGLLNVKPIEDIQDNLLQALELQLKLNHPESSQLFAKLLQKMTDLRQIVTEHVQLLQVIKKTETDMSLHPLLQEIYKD
In words: Gal4 hybrid reporter gene assay, PPARγ. Format: cell-based. Further details: Emax: dose or concentration left out as unconfirmed.

Data set [4] has as its target T4, human FXR:retinoid X receptor (RXR) heterodimer (Homo sapiens, UniProt Q96RI1).
T4 construct: pcDNA3-hFXR[32] and pSG5-hRXR[33] served for receptor overexpression in the full-length FXR assay; expressed in transfected cells; host or cells: HeLa
Nature of the data set: Full-length FXR reporter gene assay (BSEP response element) in HeLa cells. Format: cell-based. Further details: Emax: dose or concentration left out as unconfirmed. Particulars: HeLa.

Data set [5] deals with nuclear receptors related to PPARs and FXR (LXRα/β, RXRα/β/γ, RARα/β/γ, VDR, CAR). Particulars: previous studies; cited from earlier work.
For data set [6], the system named is FXR- and PPAR-regulated gene expression in HepG2 cells. Nature of the data set: FXR- and PPAR-regulated gene expression in HepG2 cells (qRT-PCR). Format: cell-based, human. The following applies: HepG2, 1 µM, 12 h, vs. vehicle-treated cells. As to the method:
HepG2 cells (DSMZ) were grown in DMEM high glucose, supplemented with 10% FCS, 1 mM SP, penicillin (100 U/mL), and streptomycin (100 μg/mL) at 37 °C and 5% CO2 and seeded in 6-well plates (2 × 10^6 per well). After 24 h, medium was changed to Minimal Essential Medium supplemented with 1% charcoal-stripped FCS, penicillin (100 U/mL), streptomycin (100 μg/mL), and 2 mM L-glutamine. After an additional 24 h, cells were incubated with test compound 41 (0.1 µM, 0.3 µM, 1 μM), OCA (1 μM), or elafibranor (1 µM) dissolved in the same medium with 0.1% DMSO or medium with 0.1% DMSO alone as untreated control for 12 h, harvested, washed with cold phosphate-buffered saline (PBS), and then directly used for RNA extraction. C2C12 cells (American Type Culture Collection, ATCC) were grown in DMEM high glucose, supplemented with 10% FCS, 1 mM SP, penicillin (100 U/mL), and streptomycin (100 μg/mL) at 37 °C and 5% CO2 and seeded in 6-well plates (1 × 10^6 per well). Upon reaching confluence, medium was changed to Eagle’s Minimal Essential Medium supplemented with 2% horse serum, penicillin (100 U/mL), streptomycin (100 μg/mL), and 2 mM L-glutamine. Cells were then differentiated in this medium for 5 days before incubation with test compounds 41 (1 μM) or L165,041 (1 μM) dissolved in the same medium with 0.1% DMSO or medium with 0.1% DMSO alone as untreated control for 8 h. Cells were harvested, washed with cold PBS, and then directly used for RNA extraction. Total RNA was extracted from HepG2 cells or C2C12 cells using the total RNA Mini Kit (R6834-02, Omega Bio-Tek, Inc., Norcross, GA, USA). Two micrograms of extracted RNA were then reverse-transcribed into cDNA with the High-Capacity cDNA Reverse Transcription Kit (4368814, Thermo Fischer Scientific, Inc.). FXR- and PPAR-regulated gene expression was then studied by quantitative real-time PCR (qRT-PCR) analysis with a StepOnePlus System (Life Technologies, Carlsbad, CA, USA) using PowerSYBRGreen (Life Technologies; 12.5 μL per well). Each sample was set up in duplicates and repeated in four independent experiments. Data were analyzed by the comparative ΔΔCT method with glyceraldehyde 3-phosphate dehydrogenase (GAPDH) as reference gene. The following primers were used for HepG2 cells (human genes): hGAPDH: 5 ′-ATATGATTCCACCCATGGCA (fw), 5′-GATGATGACCCTTTTGGCTC (rev); hSHP: 5′-GCTGTCTGGAGTCCTTCTGG (fw), 5′-CCAATGATAGGGCGAAAGAAGAG (rev); hCYP7A1: 5′-CACCTTGAGGACGGTTCCTA (fw), 5′-CGATCCAAAGGGCATGTAGT (rev); hBSEP: 5′-CATGGTGCAAGAAGTGCTGAGT (fw), 5′-AAGCGATGAGCAACTGAAATGAT (rev); hACOX: 5′-ACT CGC AGC CAG CGT TAT G (fw), 5′-AGG GTC AGC GAT GCC AAA C (rev); hPDK4: 5′-AGAGCCTGATGGATTTGGTG (fw), 5′-GCTTGGGTTTCCTGTCTGTG (rev); hCPT1: 5′-ACAGTCGGTGAGGCCTCTTAT (fw), 5′-TCTTGCTGCCTGAATGTGAGT (rev); hFGF21: 5′-ATGGATCGCTCCACTTTGACC (fw), 5′-GGGCTTCGGACTGGTAAACAT (rev). The following primers were used for C2C12 cells (murine genes)[36]: mGAPDH: 5′-CGACTTCAACAGCAACTCCCACTCTTCC (fw), 5′-TGGGTGGTCCAGGGTTTCTTACTCCTT (rev); mPCK: 5′-TGTTTACTGGGAAGGCATCG (fw), 5′-CAGAATCTCGAGTTGGGATGG (rev); mGLUT3: 5′-CGTCCTTGAAGATTCCTGTTGA (fw), 5′-GTC ACC CAA CTA CGT CCA G (rev); mLPL: 5′-GTCAGGTTCTCTCTTGTACAGG (fw), 5′-TCTAACTGCCACTTCAACCAC (rev).
For orientation: Quantitative PCR measures a nucleic acid by following its amplification.

The test system of another data set is HEK293T and U2OS cells. Nature of the data set: Multiplex high-content live-cell toxicity assay. Particulars: seven concentrations between 100 nM and 100 µM; 2, 12 and 24 h. Format: cell-based. As to the method:
Before proof-of-concept in vivo evaluation, we profiled stability and cytotoxicity of the triple modulator 41 in vitro. […] To determine cytotoxicity, we employed a multiplex high-content life-cell imaging screen[24] on HEK293T and U2OS cells. For this, the cells were treated with fluorescent probes to detect Annexin V as apoptosis marker (Annexin V Alexa488), dead cells (Yo-Pro3), and DNA/nucleus (Hoechst33342). Cells were then incubated with 41, OCA, or elafibranor at seven concentrations between 100 nM and 100 µM, and cell health was determined by fluorescence imaging after 2, 12, and 24 h (Fig. 6g–i and Supplementary Fig. 5).
Supplementary Methods for in Vitro Characterization
Cytotoxicity was assessed in a high content screen on two different cell lines, HEK293T (ATCC® CRL-1573™) and U2OS (ATCC®HTB-96™), essentially as described previously6. In brief, cells were cultured in DMEM plus L-Glutamine (high glucose) supplemented with 10 % FBS (Gibco) and Penicillin/Streptomycin (Gibco). […]
After 2 h, 12 h and 24 h, cellular shape and fluorescence was analyzed on an automated, high-content confocal microscope (CQ1, Yokogawa). […]
50 ms, 40%; bright field, 300ms, 100% transmission, one centered field per well, 7 z stacks per well with 55 µm spacing. Images were analyzed with the Pathfinder software (Yokogawa). Cells were detected and gated as previously described6. […]
The solubilized test compound (5 μL, final concentration 10 μM in phosphate buffer (0.1 M, pH 7.4)) was preincubated at 37 °C in 432 μL of phosphate buffer (0.1 M, pH 7.4) together with a 50 μL NADPH regenerating system (30 mM glucose-6-phosphate, 4 U/mL glucose-6-phosphate dehydrogenase, 10 mM NADP, 30 mM MgCl2). […] The supernatants were analyzed and test compound was quantified by HPLC: mobile phase: MeOH 83%/H2O 17%/formic acid 0.1%; flow-rate: 1 mL/min; stationary phase: MultoHigh Phenyl phase, 5 μm, 250×4, precolumn, phenyl, 5 μm, 20×4; detection wavelength: 330 and 254 nm; injection volume: 50 μL. […]

The test system of data set [7] is diet-induced mouse model of NASH. The following applies: cited from earlier work.
The next data set concerns STAM NASH. Particulars: cited from earlier work.
Data set [8] relates to choline-deficient, L-amino acid-defined, high-fat diet-induced NASH in mice. Also on record: method as in PMID 29164820. The following applies: cited from earlier work.
For data set [9], the system named is (foz/foz) mice under atherogenic diet. Particulars: without a pronounced effect on hepatic inflammation; cited from earlier work.

Each structure is given as a SMILES string.

T4 sequence (P19793 whole entry): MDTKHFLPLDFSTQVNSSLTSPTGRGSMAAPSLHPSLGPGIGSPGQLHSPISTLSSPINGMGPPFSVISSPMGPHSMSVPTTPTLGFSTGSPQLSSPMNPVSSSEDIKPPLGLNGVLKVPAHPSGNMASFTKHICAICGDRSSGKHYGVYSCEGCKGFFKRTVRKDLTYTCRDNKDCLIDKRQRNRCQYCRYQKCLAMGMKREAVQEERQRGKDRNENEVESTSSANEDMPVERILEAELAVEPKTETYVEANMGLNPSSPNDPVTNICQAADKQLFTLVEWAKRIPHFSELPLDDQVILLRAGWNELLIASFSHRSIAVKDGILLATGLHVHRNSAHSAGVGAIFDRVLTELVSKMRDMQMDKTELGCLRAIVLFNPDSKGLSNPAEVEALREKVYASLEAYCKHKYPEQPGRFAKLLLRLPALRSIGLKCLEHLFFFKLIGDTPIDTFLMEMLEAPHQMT
T4 sequence (Q96RI1 whole entry): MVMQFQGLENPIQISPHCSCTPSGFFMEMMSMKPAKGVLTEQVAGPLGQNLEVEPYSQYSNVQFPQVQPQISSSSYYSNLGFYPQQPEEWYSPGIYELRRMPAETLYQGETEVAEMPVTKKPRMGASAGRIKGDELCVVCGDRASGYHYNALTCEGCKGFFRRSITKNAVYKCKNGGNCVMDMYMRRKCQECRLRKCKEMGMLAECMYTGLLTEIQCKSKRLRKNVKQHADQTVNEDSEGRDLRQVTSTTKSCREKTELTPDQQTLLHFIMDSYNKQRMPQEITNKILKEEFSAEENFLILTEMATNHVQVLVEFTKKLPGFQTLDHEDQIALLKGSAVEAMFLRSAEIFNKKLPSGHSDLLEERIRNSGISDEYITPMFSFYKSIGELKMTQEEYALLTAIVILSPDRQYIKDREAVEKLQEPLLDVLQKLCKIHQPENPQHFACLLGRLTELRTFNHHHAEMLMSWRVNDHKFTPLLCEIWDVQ

Regarding `O=C(O)Cc1cccc(NC(=O)c2ccccc2NC(=O)c2ccc3ccccc3c2)c1` [compound 5], the EC50 – broadly, the concentration giving half of the maximal effect – is 5 ± 1 µM in data set [1] (EC50 [μM] PPARα, HEK293T, mean ± SEM, n = 3); 4.9 ± 0.9 µM in data set [2] (EC50 [μM] PPARδ, HEK293T, mean ± SEM, n = 3); 16 ± 1 µM in data set [3]; 2.5 ± 0.2 µM in data set [4] (mean ± SEM, n = 3, read-out: EC50 [μM] FXR). The Emax was 37% in data set [1] (read-out: max. rel. act. PPARα), 34% in data set [2] (read-out: max. rel. act. PPARδ), 14% in [3] (read-out: max. rel. act. PPARγ) and 21% in data set [4] (read-out: max. rel. act. FXR). Moreover, the “selectivity over related nuclear receptors” value in data set [5] is listed as “selective over related nuclear receptors”.

`CSc1ccc(C(=O)/C=C/c2cc(C)c(OC(C)(C)C(=O)O)c(C)c2)cc1` [elafibranor]: in [6], the “mRNA expression of FXR-regulated genes (BSEP, SHP, CYP7A1)” value was “no effect on FXR activity” and the “mRNA expression of PPAR-regulated genes (ACOX, PDK4, CPT1, FGF21)” value is on record as “strongly promoted the expression of PPAR-regulated genes”. Further, the “cytotoxicity (cell health, apoptosis, necrosis, lysis)” value in the data set on HEK293T and U2OS cells was “non-toxic up to 100 µM concentration over 24 h”. Moreover, the anti-steatotic effect entry in data set [7] (OCA 30 mg/kg, OCA/elafibranor 30 mg/kg + 10 mg/kg, elafibranor 10 mg/kg) was “less pronounced”. In addition, the anti-fibrotic activity entry in data set [7] (equivalent, previously reported study) is recorded as “only weak anti-fibrotic activity compared to vehicle”.

In the case of `CC[C@@H](Oc1cccc(CN(CCCOc2ccc(OC)cc2)c2nc3ccccc3o2)c1)C(=O)O` [pemafibrate], the “effects in STAM NASH” value in the data set with STAM NASH is “counter hepatocyte ballooning in STAM NASH without affecting hepatic steatosis and inflammation”.

With `CCO[C@@H](Cc1ccc(OCCn2c(C)ccc2-c2ccc(SC)cc2)cc1)C(=O)O` [saroglitazar], the anti-steatosis efficacy entry in data set [8] was “stronger anti-steatosis efficacy than the selective agents fenofibrate (PPARα) and pioglitazone (PPARγ)”.

Consider `CCO[C@H](COc1ccc(C(F)(F)F)cc1)CSc1ccc(OCC(=O)O)c(C)c1` [seladelpar], for which the “effects in (foz/foz) mice under atherogenic diet” value in data set [9] is “improved steatosis and hepatocyte ballooning”.
